Data from patent US8334315B2, “Substituted aromatic carboxamide and urea derivatives as vanilloid receptor ligands” (Gruenenthal GmbH, priority 2009, dated 2012).

Molecular target: T1, rat-species vanilloid receptor 1 (VR1/TRPV1) (Rattus norvegicus, UniProt O35433)
T1 construct: endogenous in cells; host or cells: primary cells dissociated from rat dorsal root ganglia (DRG), cultured 2-3 days with NGF
Test: Functional test on rat VR1, NADA (N-arachidonoyl dopamine) stimulus
Type: cell-based
Parameters: key to Ki (rat) NADA: agonist / partial agonist / no effect: AG=agonist; pAG=partial agonist; NE=no effect
From the text: I. Functional Testing Carried Out on the Vanilloid Receptor 1 (VRI/TRPV1 Receptor)
The agonistic or antagonistic effect of the substances to be tested on the rat-species vanilloid receptor 1 (VR1/TRPV1) can be determined using the following assay. In this assay, the influx of Ca^2+ through the receptor channel is quantified with the aid of a Ca^2+-sensitive dye (type Fluo-4, Molecular Probes Europe BV, Leiden, the Netherlands) in a fluorescent imaging plate reader (FLIPR, Molecular Devices, Sunnyvale, USA).
The vertebral column is removed from decapitated rats and placed immediately into cold HBSS buffer (Hank's buffered saline solution, Gibco Invitrogen GmbH, Karlsruhe, Germany), i.e. buffer located in an ice bath, mixed with 1% by volume (per cent by volume) of an AA solution (antibiotic/antimyotic solution, PAA, Pasching, Austria). […] The resulting pellet is respectively taken up in 250 μL of complete medium and the cell count is determined.
The number of cells in the suspension is set to 3×10^5 per ml and 150 μL of this suspension are in each case introduced into a recess in the cell culture plates coated as described hereinbefore. […] The Ca^2+-dependent fluorescence is in this case measured before and after the addition of substances (λex=488 nm, λem=540 nm). Quantification is carried out by measuring the highest fluorescence intensity (FC, fluorescence counts) over time. […]

T1 sequence (O35433 whole entry): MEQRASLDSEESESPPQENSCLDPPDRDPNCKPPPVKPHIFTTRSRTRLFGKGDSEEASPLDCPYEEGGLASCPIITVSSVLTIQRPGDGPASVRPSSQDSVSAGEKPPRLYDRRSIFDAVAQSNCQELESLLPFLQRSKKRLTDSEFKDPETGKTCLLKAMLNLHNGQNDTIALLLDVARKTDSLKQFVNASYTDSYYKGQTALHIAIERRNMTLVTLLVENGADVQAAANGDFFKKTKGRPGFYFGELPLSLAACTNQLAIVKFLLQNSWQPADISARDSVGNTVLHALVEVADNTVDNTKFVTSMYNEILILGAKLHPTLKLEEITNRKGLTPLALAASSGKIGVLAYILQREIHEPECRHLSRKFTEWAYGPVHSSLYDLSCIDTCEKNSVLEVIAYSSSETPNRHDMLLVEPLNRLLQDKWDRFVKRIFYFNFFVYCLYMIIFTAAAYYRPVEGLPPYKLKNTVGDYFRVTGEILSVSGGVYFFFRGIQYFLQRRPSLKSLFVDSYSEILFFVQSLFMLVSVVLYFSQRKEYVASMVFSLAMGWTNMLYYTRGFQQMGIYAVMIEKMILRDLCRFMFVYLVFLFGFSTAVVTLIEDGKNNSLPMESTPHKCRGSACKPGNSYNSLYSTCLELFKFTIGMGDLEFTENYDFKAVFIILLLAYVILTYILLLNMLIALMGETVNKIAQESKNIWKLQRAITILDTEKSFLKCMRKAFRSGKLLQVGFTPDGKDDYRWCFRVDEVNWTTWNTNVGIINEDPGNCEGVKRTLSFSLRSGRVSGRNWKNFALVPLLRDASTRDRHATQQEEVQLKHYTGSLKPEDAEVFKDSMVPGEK

SMILES | Ki (rat) NADA: agonist / partial agonist / no effect | Ki
Cc1nc2ccc(C(C)C(=O)NCc3cc(C(F)(F)F)nn3-c3cccc(Cl)c3)cc2s1 (centres unmarked) [Example 45, N-((1-(3-chlorophenyl)-3-(trifluoromethyl)-1H-pyrazol-5-yl)methyl)-2-(2-methylbenzo[d]thiazol-6-yl)propanamide] | AG | –
CC(C)(C)c1cc(CNC(=O)Nc2ccc3c(c2)CCC3)n(-c2cccc(Cl)c2)n1 [Example 79, 1-((3-tert-butyl-1-(3-chlorophenyl)-1H-pyrazol-5-yl)methyl)-3-(2,3-dihydro-1H-inden-5-yl)urea] | – | 39.1 nM
